ChEMBL document CHEMBL4828772, “Imidazo[1,2-b]pyridazines as IL-17A Inhibitors for Treating Psoriasis, Rheumatoid Arthritis, and Multiple Sclerosis” (ACS Med Chem Lett, 2021)

Test: Inhibition of C-terminal Avi/His-tagged IL-17A (1 to 155 residues) (unknown origin) expressed in baculovirus infected insect cells binding with FLAG-tagged/Thrombin cleavage site fused IL-17RA (1 to317 residues) N206D/N256D mutant (unknown origin) expressed in baculovirus infected insect cells measured after 2 hrs by AlphaLISA method
Design: species or system Homo sapiens

| SMILES | IC50 |
| --- | --- |
| COC[C@H](c1cnn2cc([C@@H](NC(=O)c3nonc3C(F)F)C3CCC(F)(F)CC3)nc2c1)N1C[C@@H](C(F)(F)F)NC1=O | < 9.45 nM |
| COC[C@H](c1cnn2cc([C@@H](NC(=O)c3nonc3C(F)(F)F)C3CCC(F)(F)CC3)nc2c1)N1C[C@@H](C(F)(F)F)NC1=O | < 9.45 nM |
| CC(C)c1nonc1C(=O)N[C@H](c1cn2ncc(CN3C[C@@H](C(F)(F)F)NC3=O)cc2n1)C1CCC(F)(F)CC1 | < 9.45 nM |
| O=C(N[C@H](c1cn2ncc(CN3C[C@@H](C(F)(F)F)NC3=O)cc2n1)C1CCC(F)(F)CC1)c1nonc1C(F)(F)F | < 9.45 nM |
| COC[C@H](c1cnn2cc([C@@H](NC(=O)c3conc3C3CC3)C3CCC(F)(F)CC3)nc2c1)N1C[C@@H](C(F)(F)F)NC1=O | < 9.45 nM |
| O=C(N[C@H](c1cn2ncc(CN3C[C@@H](C(F)(F)F)NC3=O)cc2n1)C1CCC(F)(F)CC1)c1nonc1C1CC1 | < 9.45 nM |
